How the values were obtained:
Format in all cases: cell-based
Trire2_104072 [1] = molecular target: T1, Trire2_104072 (Trichoderma reesei, UniProt Q1EG32, H388P, form not given); experiment: inhibition of […]-L-arabinose uptake, yeast cells; settings: 833 µM; fivefold excess over 0.167 mM labelled L-arabinose, pH 6.5, 28 °C
T1 construct: gene xlt1; full-length RUT-C30 version, yeast codon-optimised synthetic gene; no tag mentioned; P388H version XLT1 from plasmid B1687

Trire2_104072 [2] = molecular target: T1, Trire2_104072; experiment: two-electrode voltage clamp, sugar-induced current, Xenopus oocytes; settings: pH 5.5, -50 mV, sodium-free ND-96 buffer; proton symport
Trire2_104072 [3] = molecular target: T2, Trire2_104072 (Trichoderma reesei, UniProt Q1EG32); experiment: inhibition of […]-L-arabinose uptake, yeast cells; settings: fivefold excess over 0.167 mM labelled L-arabinose, pH 6.5, 28 °C
T2 construct: gene xlt1; full-length RUT-C30 version, yeast codon-optimised synthetic gene; no tag mentioned; P388H version XLT1 from plasmid B1687
T2 sequence (Q1EG32 entry or part of it): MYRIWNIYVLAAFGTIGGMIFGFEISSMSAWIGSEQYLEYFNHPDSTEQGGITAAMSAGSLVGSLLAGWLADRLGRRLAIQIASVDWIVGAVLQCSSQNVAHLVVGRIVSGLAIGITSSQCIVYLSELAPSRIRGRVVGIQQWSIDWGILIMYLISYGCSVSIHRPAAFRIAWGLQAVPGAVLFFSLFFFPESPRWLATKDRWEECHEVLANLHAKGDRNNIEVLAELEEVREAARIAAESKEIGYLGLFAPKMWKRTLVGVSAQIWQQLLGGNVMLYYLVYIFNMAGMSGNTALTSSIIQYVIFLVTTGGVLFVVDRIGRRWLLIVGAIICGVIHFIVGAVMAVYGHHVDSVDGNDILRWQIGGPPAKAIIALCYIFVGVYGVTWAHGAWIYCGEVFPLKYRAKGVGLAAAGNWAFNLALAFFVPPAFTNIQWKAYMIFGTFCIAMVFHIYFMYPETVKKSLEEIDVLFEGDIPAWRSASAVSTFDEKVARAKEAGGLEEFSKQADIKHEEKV

P. chrysogenum AraT = molecular target: T3, P. chrysogenum AraT (Penicillium rubens, UniProt B6HE12); experiment: […]-L-arabinose uptake, yeast cells; settings: 0.167 mM L-arabinose at pH 6.5 and 5 mM at pH 4.5; 28 °C; labelled compound
T3 construct: gene Pc20g01790; no tag mentioned
T3 sequence (B6HE12 1-511): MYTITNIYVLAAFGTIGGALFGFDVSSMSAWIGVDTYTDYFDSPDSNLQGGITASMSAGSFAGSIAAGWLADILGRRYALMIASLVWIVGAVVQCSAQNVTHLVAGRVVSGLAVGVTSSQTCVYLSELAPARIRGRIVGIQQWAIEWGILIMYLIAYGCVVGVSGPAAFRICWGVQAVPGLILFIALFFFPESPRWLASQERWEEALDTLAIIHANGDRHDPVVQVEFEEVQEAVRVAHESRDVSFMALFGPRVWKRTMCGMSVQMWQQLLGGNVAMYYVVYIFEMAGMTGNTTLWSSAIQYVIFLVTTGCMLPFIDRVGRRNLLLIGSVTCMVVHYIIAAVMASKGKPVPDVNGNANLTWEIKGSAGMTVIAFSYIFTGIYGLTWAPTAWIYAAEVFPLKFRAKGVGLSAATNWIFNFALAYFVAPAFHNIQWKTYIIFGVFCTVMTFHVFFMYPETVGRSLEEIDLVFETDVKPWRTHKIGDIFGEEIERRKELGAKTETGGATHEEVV

A. thaliana STP7 = molecular target: T4, A. thaliana STP7 (Arabidopsis thaliana, UniProt O04249); experiment: […]-L-arabinose uptake, yeast cells; settings: 5 mM L-arabinose, sodium citrate pH 4.5, 28 °C; labelled compound
T4 construct: no tag mentioned
T4 sequence (O04249 1-513): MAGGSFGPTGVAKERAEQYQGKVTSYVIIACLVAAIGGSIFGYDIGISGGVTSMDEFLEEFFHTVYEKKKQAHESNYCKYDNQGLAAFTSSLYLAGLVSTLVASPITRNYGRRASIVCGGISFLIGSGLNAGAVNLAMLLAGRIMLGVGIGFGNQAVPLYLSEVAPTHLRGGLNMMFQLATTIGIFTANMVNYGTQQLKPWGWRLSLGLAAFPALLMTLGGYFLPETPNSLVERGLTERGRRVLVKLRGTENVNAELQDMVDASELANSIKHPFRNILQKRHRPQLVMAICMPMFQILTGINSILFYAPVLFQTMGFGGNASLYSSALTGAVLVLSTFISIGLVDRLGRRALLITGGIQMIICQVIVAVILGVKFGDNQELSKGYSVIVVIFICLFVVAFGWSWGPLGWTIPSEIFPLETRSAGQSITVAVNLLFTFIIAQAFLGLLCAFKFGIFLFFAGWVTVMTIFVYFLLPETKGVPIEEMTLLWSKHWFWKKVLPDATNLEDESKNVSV

T1 sequence (Q1EG32 entry or part of it H388P, form open): as the sequence (Q1EG32 entry or part of it) above, with H388P counted along it

| Inhibition of L-arabinose uptake by competing sugar (glucose in 22.1, xylose in 22.2) (Trire2_104072 [1]) [%] | Km (Trire2_104072 [2]) [mM] | % inhibition at 0.833 mM (Trire2_104072 [3]) [%] | SMILES | 14C-L-arabinose uptake, yeast cells (P. chrysogenum AraT) | 14C-L-arabinose uptake, yeast cells (A. thaliana STP7) |
| --- | --- | --- | --- | --- | --- |
| 10.9±6.3 | 9.16 ± 3.35 | 13.4±7.9 | OC1OC[C@@H](O)[C@H](O)[C@H]1O (stereo partly drawn) [D-xylose] |  |  |
|  | 0.207 ± 0.079 |  | OC1OC[C@H](O)[C@H](O)[C@H]1O (stereo partly drawn) [L-arabinose] | XLT1 or P. chrysogenum AraT had significantly higher L-arabinose uptake rates than the control strain | The strain expressing A. thaliana STP7 had also significantly higher uptake |
| 0±8.2 |  | 4.5±17.6 | OC[C@H]1OC(O)[C@H](O)[C@@H](O)[C@@H]1O (stereo partly drawn) [D-glucose] |  |  |

Reference: article PMC8425032, “Functional characterization of a highly specific L-arabinose transporter from Trichoderma reesei” (Microbial Cell Factories, 2021)
